Patent US20250243210A1, “CRBN E3 LIGASE LIGAND COMPOUND, PROTEIN DEGRADER DEVELOPED BASED THEREON AND THEIR APPLICATIONS” (GLUETACS THERAPEUTICS (SHANGHAI) CO., LTD., priority 2021, published 2025)

Assays:
[1] = test system: LNcap; assay: CCK-8 tumor cell proliferation, LNcap; format: cell-based, Human; settings: Homo sapiens, 96 h, read-out: IC50 for inhibiting the proliferation of tumor cells, LNcap
Procedure: (§1) Determination of half inhibitory concentration (IC50) of the compounds against tumor cells:
(§2) The tumor cells used herein were cultured in a cell culture medium listed in table 6 at 37° C. in an incubator with 5% CO2. Prior to experimentation, all cells used were correctly identified by STR profiling, and tested negative for mycoplasma through routine screenings.
(§3) IC50 values of the compounds of the present disclosure (including the compounds in Table 4 and compounds of examples 1-72) were measured using the Meilun Cell Counting Kit-S kit from Dalian Meilun Biotech Co., Ltd. Assay details are as follows: tumor cells were seeded in a 96-well plate at a density listed in Table 7. After 24 h, 100 μL of the inoculated cells were treated with 0.5 μL of the compounds of the present disclosure (including the compounds in Table 4 and compounds of examples 1-72) at 10 different successively decreasing concentrations (starting at the highest concentration of 10 μM; 5-fold serial dilutions). After the cells were treated with the compounds of the present disclosure for a period of time (the treatment times listed in Table 7), the cell viability detection reagent was added to the culture medium for cell viability assessment according to the instructions provided with the CCK-8 kit. […] The growth inhibition of the compounds of the present disclosure on cells was plotted by Prism Graphpad software, and the IC50 values of the compounds of the present disclosure were calculated therefrom.

[2] = test system: PC-3; assay: CCK-8 tumor cell proliferation, PC-3; format: cell-based, Human; settings: Homo sapiens, PC-3, 96 h, read-out: IC50 for inhibiting the proliferation of tumor cells, PC-3
Procedure: as §1
(§4) The tumor cells used herein were cultured in a cell culture medium listed in table 6 at 37° C. in an incubator with 5% CO2.
(§5) After the cells were treated with the compounds of the present disclosure for a period of time (the treatment times listed in Table 7), the cell viability detection reagent was added to the culture medium for cell viability assessment according to the instructions provided with the CCK-8 kit. […] The growth inhibition of the compounds of the present disclosure on cells was plotted by Prism Graphpad software, and the IC50 values of the compounds of the present disclosure were calculated therefrom.

[3] = test system: DU-145; assay: CCK-8 tumor cell proliferation, DU-145; format: cell-based, Human; settings: Homo sapiens, DU-145, 96 h, read-out: IC50 for inhibiting the proliferation of tumor cells, DU-145
Procedure: as §1, §4, §5

[4] = test system: WSU-DLCL2; assay: CCK-8 tumor cell proliferation, WSU-DLCL2; format: cell-based, Human; settings: Homo sapiens, WSUDLCL2, WSU-DLCL2, 96 h, read-out: IC50 for inhibiting the proliferation of tumor cells, WSU-DLCL2
Procedure: as §1, §4, §5

[5] = test system: Hep3B2.1-7; assay: CCK-8 tumor cell proliferation, Hep3B2.1-7; format: cell-based, Human; settings: Homo sapiens, Hep3B2.1-7, 96 h, read-out: IC50 for inhibiting the proliferation of tumor cells, Hep3B2.1-7
Procedure: as §1, §2, §3

[6] = test system: MGC80-3; assay: CCK-8 tumor cell proliferation, MGC80-3; format: cell-based, Human; settings: Homo sapiens, MGC-803, MGC80-3, 96 h, read-out: IC50 for inhibiting the proliferation of tumor cells, MGC80-3
Procedure: as §1, §2, §3

[7] = test system: Kasumi-1; assay: CCK-8 tumor cell proliferation, Kasumi-1; format: cell-based; settings: Homo sapiens, Kasumi-1, 72 h, read-out: IC50 for inhibiting the proliferation of tumor cells, Kasumi-1
Procedure: as §1, §4, §5

[8] = test system: SU-DHL-6; assay: CCK-8 tumor cell proliferation, SU-DHL-6; format: cell-based; settings: Homo sapiens, SU-DHL-6, 72 h, read-out: IC50 for inhibiting the proliferation of tumor cells, SU-DHL-6
Procedure: as §1, §4, §5

SMILES	IC50 [1] [µM]	IC50 [2] [µM]	IC50 [3] [µM]	IC50 [4] [µM]	IC50 [5] [µM]	IC50 [6] [µM]	IC50 [7] [µM]	IC50 [8] [µM]
CC1(C)[C@H](NC(=O)c2ccc(N3CCC(CN4C5CCC4CN(c4ccc6c(c4)C(=O)N(C4CCC(=O)NC4=O)C6=O)C5)CC3)nn2)C(C)(C)[C@H]1Oc1ccc(C#N)c(Cl)c1 (stereo partly shown) [GT-03399, N-((1r,3r)-3-(3-chloro-4-cyanophenoxy)-2,2,4,4-tetramethylcyclobutyl)-6-(4-((3-(2-(2,6-dioxopiperidin-3-yl)-1,3-dioxoisoindolin-5-yl)-3,8-diazabicyclo[3.2.1]octan-8-yl)methyl)piperidin-1-yl)pyridazine-3-carboxamide]	0.1 to 0.5	0.1 to 0.5	0.1 to 0.5	0.5 to 1	0.1 to 0.5			
CC1(C)[C@H](NC(=O)c2ccc(N3CCC(CN4C5CC4CN(c4ccc6c(c4)C(=O)N(C4CCC(=O)NC4=O)C6=O)C5)CC3)nn2)C(C)(C)[C@H]1Oc1ccc(C#N)c(Cl)c1 (stereo partly shown) [GT-03401, N-((1r,3r)-3-(3-chloro-4-cyanophenoxy)-2,2,4,4-tetramethylcyclobutyl)-6-(4-((3-(2-(2,6-dioxopiperidin-3-yl)-1,3-dioxoisoindolin-5-yl)-3,6-diazabicyclo[3.1.1]heptan-6-yl)methyl)piperidin-1-yl)pyridazine-3-carboxamide]	0.5 to 1	0.1 to 0.5	0.5 to 1	1 to 5		0.1 to 0.5		
CC1(C)[C@H](NC(=O)c2ccc(N3CCC(CN4CC5CC(C4)N5c4cc5c(cc4F)C(=O)N(C4CCC(=O)NC4=O)C5=O)CC3)nc2)C(C)(C)[C@H]1Oc1ccc(C#N)c(Cl)c1 (stereo partly shown) [GT-03403, N-((1r,3r)-3-(3-chloro-4-cyanophenoxy)-2,2,4,4-tetramethylcyclobutyl)-6-(4-((6-(2-(2,6-dioxopiperidin-3-yl)-6-fluoro-1,3-dioxoisoindolin-5-yl)-3,6-diazabicyclo[3.1.1]heptan-3-yl)methyl)piperidin-1-yl)nicotinamide]	0.5 to 1	0.1 to 0.5	0.1 to 0.5	5 to 10		0.5 to 1		
Cc1nc(Nc2ncc(C(=O)Nc3c(C)cccc3Cl)s2)cc(N2CCC(CN3CC4CCC(C3)N4c3cc4c(cc3F)C(=O)N(C3CCC(=O)NC3=O)C4=O)CC2)n1 (stereo not shown) [GT-03627, N-(2-chloro-6-methylphenyl)-2-((6-(4-((8-(2-(2,6-dioxopiperidin-3-yl)-6-fluoro-1,3-dioxoisoindolin-5-yl)-3,8-diazabicyclo[3.2.1]octan-3-yl)methyl)piperidin-1-yl)-2-methylpyrimidin-4-yl)amino)thiazole-5-carboxamide]							0.1 to 0.5	0.1 to 0.5
Cc1nc(Nc2ncc(C(=O)Nc3c(C)cccc3Cl)s2)cc(N2CCC(CN3CC4CC(C3)N4c3cc4c(cc3F)C(=O)N(C3CCC(=O)NC3=O)C4=O)CC2)n1 (stereo not shown) [GT-03628, N-(2-chloro-6-methylphenyl)-2-((6-(4-((6-(2-(2,6-dioxopiperidin-3-yl)-6-fluoro-1,3-dioxoisoindolin-5-yl)-3,6-diazabicyclo[3.1.1]heptan-3-yl)methyl)piperidin-1-yl)-2-methylpyrimidin-4-yl)amino)thiazole-5-carboxamide]							0.1 to 0.5	
Cc1nc(Nc2ncc(C(=O)Nc3c(C)cccc3Cl)s2)cc(N2CCC(CN3CC4CCC(C3)N4c3ccc4c(c3)C(=O)N(C3CCC(=O)NC3=O)C4=O)CC2)n1 (stereo not shown) [GT-03629, N-(2-chloro-6-methylphenyl)-2-((6-(4-((8-(2-(2,6-dioxopiperidin-3-yl)-1,3-dioxoisoindolin-5-yl)-3,8-diazabicyclo[3.2.1]octan-3-yl)methyl)piperidin-1-yl)-2-methylpyrimidin-4-yl)amino)thiazole-5-carboxamide]							0.1 to 0.5	0.1 to 0.5
Cc1nc(Nc2ncc(C(=O)Nc3c(C)cccc3Cl)s2)cc(N2CCC(CN3CC4CC(C3)N4c3ccc4c(c3)C(=O)N(C3CCC(=O)NC3=O)C4=O)CC2)n1 (stereo not shown) [GT-03630, N-(2-chloro-6-methylphenyl)-2-((6-(4-((6-(2-(2,6-dioxopiperidin-3-yl)-1,3-dioxoisoindolin-5-yl)-3,6-diazabicyclo[3.1.1]heptan-3-yl)methyl)piperidin-1-yl)-2-methylpyrimidin-4-yl)amino)thiazole-5-carboxamide]							≤ 0.05	0.1 to 0.5
